Test results reported in patent US8633204B2 (Pfizer Inc., priority 2006, dated 2014).

Experiments:
[1] = test system: PI3-K in BT20 cells (phosphorylation of AKT at serine 473); assay: PI3-Kα Cellular Assay (AKT Ser473 phosphorylation ELISA in BT20 cells); type: cell-based, human; settings: Homo sapiens, BT-20, pAKT Ser473 ELISA, 1 hour incubation
Procedure: Compounds of the present invention were evaluated for potency against PI3-K using a cellular assay as follows.
Healthy growing human breast cancer cells BT20 (PI3K mutated) are used for the assay. BT20 cells are grown in 10% FBS+GLN (1:100)+PS (1:100)+1 mM Sodium Pyruvate+0.1 mM Sodium Bicarbonate+Non-Essential Amino Acids Solution (1:100) MEM medium (MEM+all). […] The cells are re-suspended in 10% FBS MEM all and are centrifuged down at 1400 rpm for 5 minutes. The cells are re-suspended in 0.5% FBS MEM all and are counted on a cell counter. The cells are seeded at 25,000 cells/well in volume of 100 μL/well in 0.5% FBS MEM all in a 96 well flat-bottom plate. The negative control wells receive only 100 μL of 0.5% FBS MEM all medium without cells. The plate is incubated overnight in a cell culture incubator with 5% CO2 at 37° C.
On day 2, testing compounds are prepared in 0.5% FBS MEM all medium and serially diluted at 1:3 for 11 test concentrations. Each concentration of the compounds is tested in duplicate. The compound solutions are added at 25 μL/well to the corresponded wells in cell plate, and 25 μL/well of the vehicle (0.5% DMSO in 0.5% FBS MEM all) is added to the negative control wells (no cells) and the positive control wells (cells without compounds). The plate is incubated for 1 hour in a cell culture incubator with 5% CO2 at 37° C. After 1 hour of incubation, the medium is removed, 100 μL/well of cell lysis buffer is added into the cell plate, and shake for 15 minutes at room temperature. […] After 1 hour, empty the contents of the wells, wash the plate 4 times with the wash buffer, and add 100 μL of TMB substrate solution (catalog #T0440, Sigma) into each well, and incubate with gentle shaking at room temperature for […]. After 15 minutes of color development, add 100 μL of stop solution (1N hydrochloric acid) to each well, and read the plate at 450 nm on ELISA plate reader.

[2] = target: PI3-Kα (Mus musculus (Mouse), UniProt P42337); assay: PI3-Kα Biochemical Assay (fluorescence polarization kinase assay)
Chain of PI3-Kα (P42337 whole entry, the tested form may be a part): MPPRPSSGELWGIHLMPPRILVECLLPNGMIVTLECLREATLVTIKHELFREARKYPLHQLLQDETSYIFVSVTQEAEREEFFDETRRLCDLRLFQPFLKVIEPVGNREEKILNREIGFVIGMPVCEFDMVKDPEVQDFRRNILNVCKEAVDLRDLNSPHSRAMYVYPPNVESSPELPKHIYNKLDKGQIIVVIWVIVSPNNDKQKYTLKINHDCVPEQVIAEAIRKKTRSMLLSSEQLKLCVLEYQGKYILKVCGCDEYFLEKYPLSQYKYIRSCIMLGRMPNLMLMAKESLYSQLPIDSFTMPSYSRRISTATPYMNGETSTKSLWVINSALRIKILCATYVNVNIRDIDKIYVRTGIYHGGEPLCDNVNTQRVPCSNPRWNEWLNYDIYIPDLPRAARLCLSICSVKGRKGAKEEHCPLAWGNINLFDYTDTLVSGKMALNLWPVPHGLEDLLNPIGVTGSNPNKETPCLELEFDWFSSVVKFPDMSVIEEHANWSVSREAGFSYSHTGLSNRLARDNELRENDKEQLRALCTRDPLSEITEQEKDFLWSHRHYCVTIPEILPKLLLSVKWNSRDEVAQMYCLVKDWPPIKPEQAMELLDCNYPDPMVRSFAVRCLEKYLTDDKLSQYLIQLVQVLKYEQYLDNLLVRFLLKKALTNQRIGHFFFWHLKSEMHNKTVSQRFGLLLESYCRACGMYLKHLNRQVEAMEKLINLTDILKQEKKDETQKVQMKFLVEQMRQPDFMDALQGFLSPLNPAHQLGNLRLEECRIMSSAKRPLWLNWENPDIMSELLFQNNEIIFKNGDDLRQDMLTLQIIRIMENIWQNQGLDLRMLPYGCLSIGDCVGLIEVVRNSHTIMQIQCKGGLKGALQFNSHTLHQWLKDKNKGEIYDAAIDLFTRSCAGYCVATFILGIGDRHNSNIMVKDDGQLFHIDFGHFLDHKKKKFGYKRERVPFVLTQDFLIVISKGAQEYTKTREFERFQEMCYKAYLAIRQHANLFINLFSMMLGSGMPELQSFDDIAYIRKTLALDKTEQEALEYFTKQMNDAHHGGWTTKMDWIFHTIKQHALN
Chain of PI3-Kα (P26450 whole entry partner, the tested form may be a part): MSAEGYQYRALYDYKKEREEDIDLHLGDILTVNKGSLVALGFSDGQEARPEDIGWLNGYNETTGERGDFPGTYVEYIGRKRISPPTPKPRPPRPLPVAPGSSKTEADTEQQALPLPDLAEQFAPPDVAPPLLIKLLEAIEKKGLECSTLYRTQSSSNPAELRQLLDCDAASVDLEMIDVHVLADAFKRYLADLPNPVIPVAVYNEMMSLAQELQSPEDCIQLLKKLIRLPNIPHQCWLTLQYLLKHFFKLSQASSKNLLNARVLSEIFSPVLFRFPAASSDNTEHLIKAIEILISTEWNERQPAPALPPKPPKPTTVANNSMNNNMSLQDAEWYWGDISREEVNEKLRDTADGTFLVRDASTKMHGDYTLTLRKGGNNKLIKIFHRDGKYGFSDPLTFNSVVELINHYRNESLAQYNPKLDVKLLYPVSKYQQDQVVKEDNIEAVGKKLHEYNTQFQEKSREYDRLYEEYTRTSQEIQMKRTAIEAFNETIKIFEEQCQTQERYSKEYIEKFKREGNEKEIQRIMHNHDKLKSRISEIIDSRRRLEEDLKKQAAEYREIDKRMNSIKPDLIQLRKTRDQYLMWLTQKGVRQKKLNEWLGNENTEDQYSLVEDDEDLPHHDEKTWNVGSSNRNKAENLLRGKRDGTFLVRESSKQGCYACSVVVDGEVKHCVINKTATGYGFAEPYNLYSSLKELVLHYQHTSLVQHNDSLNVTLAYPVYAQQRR
Procedure: Compounds of the present invention were evaluated for potency against PI3-Kα using an in vitro kinase assay. PI3-Kα activity is measured in vitro by determining the level of phosphorylation of the substrate PI(4,5)P2. The formation of product PI(3,4,5)P3 is monitored by binding to the Grip1 PH domain in a ligand displacement fluorescence polarization (FP) assay, in which the TAMRA-labeled PI(3,4,5)P3 complexed with Grip1 PH domain is displaced by PI(3,4,5)P3 formed in the PI3-Kα reaction resulting in a decrease in FP signal. Mouse PI3-Kα P110 and P85 subunits were co-expressed in insect cells and co-purified to homogeneity. PI(4,5)P2 were obtained from Cayman. TAMRA-labeled PI(3,4,5)P3 were from Echelon, Grip1 PH domain from Dundee and other reagents were from Sigma.
All assays were performed in a Corning solid black 96-well half area plate using LJL Analyst (Molecular Devices) at room temperature. The assay buffer contained 50 mM HEPES, pH 7.4, 150 mM NaCl, 5 mM DTT, and 0.05% CHAPS. Dry powder PI(4,5)P2 was dissolved in 50 mM TRIS, pH 8 to make 1 mM stock solution. The PI(4,5)P2 stock solution was then diluted in the assay buffer to 60 μM, and sonicated for 30 sec before use. To the assay plate, the following reagents were added in sequence: 10 μL of 60 μM PI(4,5)P2, 5 μL of 4 nM PI3-Kα, 2 μL of compound in 25% DMSO, 3 μL of mixture containing 200 μM ATP and 33 mM MgCl2. The final volume for the reaction was 20 μL. The reaction mixture was incubated at room temperature for 35 min. The reaction was then stopped by 20 μL of 20 mM EDTA. […] The FP signal was allowed to develop for 40 min before reading on a LJL analyst at excitation 535 nm and emission 580 nm.
The percentage of inhibition was calculated based on the following equation % inhibition=[1−(FPcompound−FPmax)/(FPmin−FPmax)]×100, where FPcompound is the FP reading at a given compound concentration, FPmin is the FP signal of the PI3-Kα reaction in the absence of a compound, and FPmax is the background FP signal in the absence of PI3-Kα and a compound. The IC50 was determined by fitting the FP signal vs. compound concentration to a sigmoidal dose response equation using GraphPad Prism curve fitting program.

SMILES	IC50 [1]	IC50 [2]	inhibition at 10 µM [2]	inhibition at 50 µM ([2]; at 50 μM)
Cc1nc(N)nc2c1cc(-c1cnn(CCO)c1)c(=O)n2C1CCCC1 [Compound 106, 2-Amino-8-cyclopentyl-6-(1-(2-hydroxyethyl)-1H-pyrazol-4-yl)-4-methylpyrido[2,3-d]pyrimidin-7(8H)-one]	495 nM	45 nM		
CNc1nc(C)c2cc(-c3cncnc3)c(=O)n(C3CCCC3)c2n1 [Compound 107, 8-Cyclopentyl-4-methyl-2-(methylamino)-6-(pyrimidin-5-yl)pyrido[2,3-d]pyrimidin-7(8H)-one]	305 nM	23 nM		
CNc1nc(C)c2cc(-c3ccc(O)c(OC)c3)c(=O)n(C3CCCC3)c2n1 [Compound 108, 8-cyclopentyl-6-(4-hydroxy-3-methoxyphenyl)-4-methyl-2-(methylamino)pyrido[2,3-d]pyrimidin-7(8H)-one]	3.82 nM	1.57 nM	99%	
CNc1nc(C)c2cc(-c3ccc(OC)nc3)c(=O)n(C3CCC3)c2n1 [Compound 109, 8-Cyclobutyl-6-(6-methoxypyridin-3-yl)-4-methyl-2-(methylamino)pyrido[2,3-d]pyrimidin-7(8H)-one]	58.4 nM	6.3 nM	99%	
C=CCn1c(=O)c(-c2ccc(OC)nc2)cc2c(C)nc(NC)nc21 [Compound 110, 8-allyl-6-(6-methoxypyridin-3-yl)-4-methyl-2-(methylamino)pyrido[2,3-d]pyrimidin-7(8H)-one]	106 nM	17 nM		
Cc1nc(N)nc2c1cc(-c1ccc(Cl)nc1)c(=O)n2C1CCCC1 [Compound 112, 2-amino-6-(6-chloropyridin-3-yl)-8-cyclopentyl-4-methylpyrido[2,3-d]pyrimidin-7(8H)-one]	74.2 nM	39.1 nM		
CNc1nc(C)c2cc(-c3ccc(OC)nc3)c(=O)n(C(C)C)c2n1 [Compound 113, 8-Isopropyl-6-(6-methoxypyridin-3-yl)-4-methyl-2-(methylamino)pyrido[2,3-c]pyrimidin-7(8H)-one]	95.2 nM	21 nM		
Cc1nc(NCC(C)(C)O)nc2c1cc(-c1cccc(O)c1)c(=O)n2C1CCCC1 [Compound 114, 8-Cyclopentyl-2-(2-hydroxy-2-methylpropylamino)-6-(3-hydroxyphenyl)-4-methylpyrido[2,3-d]-pyrimidin-7(8H)-one]	1180 nM	110 nM		
CNc1nc(C)c2cc(-c3cnc4[nH]ccc4c3)c(=O)n(C3CCCC3)c2n1 [Compound 115, 8-cyclopentyl-4-methyl-2-(methylamino)-6-(1H-pyrrolo[2,3-b]pyridin-5-yl)pyrido[2,3-d]pyrimidin-7(8H)-one]	3.82 nM	0.75 nM		
COc1ccc(-c2cc3c(C)nc(NCC(C)(C)O)nc3n(C3CCCC3)c2=O)cn1 [Compound 116, 8-Cyclopentyl-2-(2-hydroxy-2-methylpropylamino)-6-(6-methoxypyridin-34)-4-methylpyrido[2,3-d]pyrimidin-7(8H)-one]	5750 nM	830 nM		
CCNc1nc(C)c2cc(CCC(=O)N(CC)CC)c(=O)n(C3CCCC3)c2n1 [Compound 117, 3-[8-cyclopentyl-2-(ethylamino)-methyl-7-oxo-7,8-dihydropyrido[2,3-d]pyrimidin-6-yl]-N,N-diethylpropanamide]	10000 nM		32%	
CCNc1nc(C)c2cc(CCC(=O)Nc3ncc[nH]3)c(=O)n(C3CCCC3)c2n1 [Compound 119]	5710 nM	310 nM		
CNc1nc(C)c2cc(/C=C/O)c(=O)n(C3CCCC3)c2n1 [Compound 120, (E)-8-cyclopentyl-6-(2-hydroxyvinyl)-4-methyl-2-(methylamino)pyrido[2,3-d]pyrimidin-7(8H)-one]	896 nM	42 nM		
CCNc1nc(C)c2cc(CCC(=O)N(C)C)c(=O)n(C3CCCC3)c2n1 [Compound 121, 3-(8-Cyclopentyl-2-(ethylamino)-4-methyl-7-oxo-7,8-dihydropyrido[2,3-d]pyrimidin-6-yl)-N,N-dimethylpropanamide]	10000 nM			27%
CNc1nc(C)c2cc(C(N)=O)c(=O)n(C3CCCC3)c2n1 [Compound 123, 8-Cyclopentyl-4-methyl-2-(methylamino)-7-oxo-7,8-dihydropyrido[2,3-d]pyrimidine-6-carboxamide]	650 nM	68 nM		
CNc1nc(C)c2cc(-c3cn[nH]c3)c(=O)n(C3CCCC3)c2n1 [Compound 124, 8-cyclopentyl-4-methyl-2-(methylamino)-6-(1H-pyrazol-4-yl)pyrido[2,3-d]pyrimidin-7(8H)-one]	2.58 nM	8 nM		
COc1ncccc1-c1cc2c(C)nc(N)nc2n(C2CCCC2)c1=O [Compound 126]	5480 nM	856 nM		

Further lines, results first:

IC50 [1]	IC50 [2]	inhibition at 10 µM [2]	inhibition at 50 µM ([2]; at 50 μM)	SMILES
2.76 nM	0.48 nM			Cc1nc(N)nc2c1cc(-c1cnc3[nH]ccc3c1)c(=O)n2C1CCCC1 [Compound 127, 2-amino-8-cyclopentyl-4-methyl-6-(1H-pyrrolo[2,3-b]pyridin-5-yl)pyrido[2,3-d]pyrimidin-7(8H)-one]
3530 nM	275 nM			CNc1nc(C)c2cc(-c3cccnc3OC)c(=O)n(C3CCCC3)c2n1 [Compound 128, 8-cyclopentyl-6-(2-methoxypyridin-3-yl)-4-methyl-2-(methylamino)pyrido[2,3-d]pyrimidin-7(8H)-one]
2750 nM	4 nM			CCNc1nc(C)c2cc(CCCO)c(=O)n(C3CCCC3)c2n1 [Compound 129, 8-Cyclopentyl-2-(ethylamino)-6-(3-hydroxypropyl)-4-methylpyrido[2,3-d]pyrimidin-7(8H)-one]
10000 nM	54 nM			CCNc1nc(C)c2cc(CCC(=O)O)c(=O)n(C3CCCC3)c2n1 [Compound 130, 3-(8-Cyclopentyl-2-(ethylamino)-4-methyl-7-oxo-7,8-dihydropyrido[2,3-d]pyrimidin-6-yl)propanoic acid]
7980 nM	3400 nM			CCNc1nc(C)c2cc(-c3cccnc3N)c(=O)n(C3CCCC3)c2n1 [Compound 131, 6-(2-aminopyridin-3-yl)-8-cyclopentyl-2-(ethylamino)-4-methylpyrido[2,3-d]pyrimidin-7(8H)-one]
10000 nM	5500 nM			CCNc1nc(C)c2cc(CCC(=O)OCC)c(=O)n(C3CCCC3)c2n1 [Compound 132, Ethyl 3-(8-cyclopentyl-2-(ethylamino)-4-methyl-7-oxo-7,8-dihydropyrido[2,3-d]pyrimidin-6-yl)propanoate]
603 nM	60 nM			CNc1nc(C)c2cc(C#N)c(=O)n(C3CCCC3)c2n1 [Compound 133, 2-Methylamino-6-carbonitrile-8-cyclopentyl-4-methylpyrido[2,3-d]pyrimidin-7(8H)-one]
8300 nM	2100 nM			CNc1nc(C)c2cc(-c3ncccc3F)c(=O)n(C3CCCC3)c2n1 [Compound 134, 8-cyclopentyl-6-(3-fluoropyridin-2-yl)-4-methyl-2-(methylamino)pyrido[2,3-d]pyrimidin-7(8H)-one]
